Measured values from ChEMBL document CHEMBL1909046, “DrugMatrix in vitro pharmacology data”.

Assays:
Cytochrome P450 2C9 = Cytochrome P450 2C9 (Homo sapiens, UniProt P11712); conditions: bti-tn-5b1-4; note: in other assays of this panel Not Active means under 50% inhibition at 10 µM
Cytochrome P450 2D6 = Cytochrome P450 2D6 (Homo sapiens, UniProt P10635); conditions: bti-tn-5b1-4; note: in other assays of this panel Not Active means under 50% inhibition at 10 µM
Cytochrome P450 3A4 = Cytochrome P450 3A4 (Homo sapiens, UniProt P08684); conditions: bti-tn-5b1-4; note: in other assays of this panel Not Active means under 50% inhibition at 10 µM
Glucocorticoid receptor = biological target: T1, Glucocorticoid receptor (Homo sapiens, UniProt P04150); conditions: hela s3; note: in other assays of this panel Not Active means under 50% inhibition at 10 µM
T1 sequence (P04150 whole entry): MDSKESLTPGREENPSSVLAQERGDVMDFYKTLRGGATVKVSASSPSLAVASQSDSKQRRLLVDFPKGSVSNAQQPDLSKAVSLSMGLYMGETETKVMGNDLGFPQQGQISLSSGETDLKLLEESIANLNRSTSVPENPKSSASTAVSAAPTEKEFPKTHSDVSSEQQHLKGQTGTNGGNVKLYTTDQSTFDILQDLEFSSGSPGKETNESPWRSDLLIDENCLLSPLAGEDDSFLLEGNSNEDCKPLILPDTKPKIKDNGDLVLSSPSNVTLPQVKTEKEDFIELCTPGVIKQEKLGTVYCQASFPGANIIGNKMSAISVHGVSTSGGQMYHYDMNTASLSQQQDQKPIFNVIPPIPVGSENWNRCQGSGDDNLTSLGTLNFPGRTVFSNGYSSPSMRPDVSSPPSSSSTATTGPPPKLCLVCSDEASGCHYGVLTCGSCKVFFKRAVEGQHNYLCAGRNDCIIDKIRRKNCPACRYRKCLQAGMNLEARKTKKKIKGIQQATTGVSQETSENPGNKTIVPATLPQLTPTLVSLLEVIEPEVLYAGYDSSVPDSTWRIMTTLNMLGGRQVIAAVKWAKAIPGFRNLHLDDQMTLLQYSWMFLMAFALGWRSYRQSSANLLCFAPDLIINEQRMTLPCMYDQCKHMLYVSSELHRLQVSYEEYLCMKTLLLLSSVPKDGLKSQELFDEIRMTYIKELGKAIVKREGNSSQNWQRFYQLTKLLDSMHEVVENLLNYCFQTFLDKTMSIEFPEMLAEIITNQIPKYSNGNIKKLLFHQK

[1] = biological target: T2, Alpha-1B adrenergic receptor (Rattus norvegicus, UniProt P15823); experiment: DRUGMATRIX: Alpha-1B adrenergic receptor radioligand binding (ligand: prazosin); assay type: cell membranes, Wistar, Liver, Membrane; conditions: Not Active = under 50% inhibition at 10 µM
T2 sequence (P15823 whole entry): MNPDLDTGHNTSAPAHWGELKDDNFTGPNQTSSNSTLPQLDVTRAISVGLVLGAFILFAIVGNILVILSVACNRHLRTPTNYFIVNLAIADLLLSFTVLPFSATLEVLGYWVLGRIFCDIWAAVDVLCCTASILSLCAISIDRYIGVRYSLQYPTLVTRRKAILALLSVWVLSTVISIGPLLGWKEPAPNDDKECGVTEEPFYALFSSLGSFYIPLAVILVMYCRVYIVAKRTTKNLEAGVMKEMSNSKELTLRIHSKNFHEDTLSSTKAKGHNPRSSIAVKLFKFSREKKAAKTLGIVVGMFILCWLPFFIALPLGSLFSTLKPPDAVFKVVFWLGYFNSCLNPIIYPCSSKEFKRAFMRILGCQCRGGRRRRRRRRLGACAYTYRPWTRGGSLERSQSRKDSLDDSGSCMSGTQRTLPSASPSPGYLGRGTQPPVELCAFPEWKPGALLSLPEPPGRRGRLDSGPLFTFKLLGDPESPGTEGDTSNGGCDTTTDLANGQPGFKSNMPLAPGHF

[2] = biological target: Sodium-dependent noradrenaline transporter (Homo sapiens, UniProt P23975); experiment: DRUGMATRIX: Norepinephrine Transporter radioligand binding (ligand: [125I] RTI-55); assay type: cell membranes, MDCK, Membrane; conditions: mdck; Not Active = under 50% inhibition at 10 µM
D(1A) dopamine receptor = D(1A) dopamine receptor (Homo sapiens, UniProt P21728); experiment: DRUGMATRIX: Dopamine D1 radioligand binding (ligand: [3H] SCH-23390); assay type: cell membranes, CHO, Membrane; conditions: cho; Not Active = under 50% inhibition at 10 µM
D(1A) dopamine receptor, sequence (P21728 whole entry): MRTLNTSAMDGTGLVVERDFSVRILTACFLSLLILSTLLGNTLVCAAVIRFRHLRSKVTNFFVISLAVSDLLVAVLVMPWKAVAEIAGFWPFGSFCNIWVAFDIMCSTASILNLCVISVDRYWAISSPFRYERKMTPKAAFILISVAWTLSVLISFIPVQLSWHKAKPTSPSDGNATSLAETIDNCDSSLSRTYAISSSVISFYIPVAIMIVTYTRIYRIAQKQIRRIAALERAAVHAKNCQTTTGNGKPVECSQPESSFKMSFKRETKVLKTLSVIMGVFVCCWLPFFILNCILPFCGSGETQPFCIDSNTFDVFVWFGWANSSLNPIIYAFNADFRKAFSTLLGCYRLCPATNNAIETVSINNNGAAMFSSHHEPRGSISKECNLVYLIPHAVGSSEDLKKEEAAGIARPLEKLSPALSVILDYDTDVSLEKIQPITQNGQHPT

Sodium-dependent noradrenaline transporter, sequence (P23975 whole entry): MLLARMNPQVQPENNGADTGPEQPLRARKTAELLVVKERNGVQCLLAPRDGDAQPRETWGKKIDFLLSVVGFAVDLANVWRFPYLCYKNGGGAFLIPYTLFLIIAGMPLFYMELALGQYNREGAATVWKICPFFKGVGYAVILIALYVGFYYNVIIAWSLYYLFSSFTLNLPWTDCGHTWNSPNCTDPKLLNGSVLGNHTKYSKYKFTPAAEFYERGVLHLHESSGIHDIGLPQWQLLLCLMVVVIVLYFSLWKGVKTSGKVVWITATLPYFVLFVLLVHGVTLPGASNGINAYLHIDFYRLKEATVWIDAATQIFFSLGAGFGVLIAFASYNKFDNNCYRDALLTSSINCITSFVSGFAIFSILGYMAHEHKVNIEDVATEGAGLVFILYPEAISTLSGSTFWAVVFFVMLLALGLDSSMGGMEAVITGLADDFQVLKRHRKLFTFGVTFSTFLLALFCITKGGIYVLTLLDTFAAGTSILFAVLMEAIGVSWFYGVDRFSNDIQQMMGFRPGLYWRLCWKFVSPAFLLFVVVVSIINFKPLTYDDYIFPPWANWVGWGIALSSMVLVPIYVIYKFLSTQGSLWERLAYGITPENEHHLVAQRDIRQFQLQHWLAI
Cytochrome P450 2C9, sequence (P11712 whole entry): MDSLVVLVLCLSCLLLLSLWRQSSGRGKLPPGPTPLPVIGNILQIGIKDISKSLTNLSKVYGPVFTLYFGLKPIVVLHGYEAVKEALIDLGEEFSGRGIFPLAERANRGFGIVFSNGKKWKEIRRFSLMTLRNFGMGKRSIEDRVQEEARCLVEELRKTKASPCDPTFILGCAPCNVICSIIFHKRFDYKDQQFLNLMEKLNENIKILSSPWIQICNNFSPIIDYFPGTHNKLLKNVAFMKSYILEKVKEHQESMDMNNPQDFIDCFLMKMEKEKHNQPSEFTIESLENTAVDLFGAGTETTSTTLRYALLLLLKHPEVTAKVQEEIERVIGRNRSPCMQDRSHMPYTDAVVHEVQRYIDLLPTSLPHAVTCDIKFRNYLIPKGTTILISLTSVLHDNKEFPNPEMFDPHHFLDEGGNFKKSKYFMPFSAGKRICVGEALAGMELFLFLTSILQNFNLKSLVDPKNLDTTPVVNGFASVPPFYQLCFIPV
Cytochrome P450 3A4, sequence (P08684 whole entry): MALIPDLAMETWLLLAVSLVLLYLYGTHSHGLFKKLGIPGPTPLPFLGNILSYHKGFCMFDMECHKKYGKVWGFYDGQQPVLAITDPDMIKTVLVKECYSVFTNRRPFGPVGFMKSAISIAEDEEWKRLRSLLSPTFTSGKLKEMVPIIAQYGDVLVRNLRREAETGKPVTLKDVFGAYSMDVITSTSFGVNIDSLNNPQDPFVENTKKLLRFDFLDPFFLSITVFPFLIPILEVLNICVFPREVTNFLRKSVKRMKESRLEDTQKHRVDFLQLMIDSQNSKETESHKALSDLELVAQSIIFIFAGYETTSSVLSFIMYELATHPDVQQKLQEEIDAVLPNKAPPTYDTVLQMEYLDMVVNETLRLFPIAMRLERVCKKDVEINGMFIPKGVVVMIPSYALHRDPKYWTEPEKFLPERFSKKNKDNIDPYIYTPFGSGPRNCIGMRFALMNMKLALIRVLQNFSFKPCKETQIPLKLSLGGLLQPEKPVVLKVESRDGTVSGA
Cytochrome P450 2D6, sequence (P10635 whole entry): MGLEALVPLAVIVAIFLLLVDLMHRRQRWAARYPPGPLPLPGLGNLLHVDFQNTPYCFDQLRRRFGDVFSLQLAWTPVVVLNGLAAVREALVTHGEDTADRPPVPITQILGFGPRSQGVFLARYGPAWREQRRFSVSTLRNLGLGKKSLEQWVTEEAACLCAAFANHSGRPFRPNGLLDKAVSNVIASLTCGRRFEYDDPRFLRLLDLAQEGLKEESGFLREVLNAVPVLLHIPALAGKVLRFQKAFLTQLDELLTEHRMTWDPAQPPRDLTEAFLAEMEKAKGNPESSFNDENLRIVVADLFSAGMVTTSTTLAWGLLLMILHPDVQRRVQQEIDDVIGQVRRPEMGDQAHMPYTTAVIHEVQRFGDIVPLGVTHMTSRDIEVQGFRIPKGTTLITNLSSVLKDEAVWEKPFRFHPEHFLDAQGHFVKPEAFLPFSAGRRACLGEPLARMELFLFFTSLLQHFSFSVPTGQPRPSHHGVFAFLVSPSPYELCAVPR

CN(C)CCC=C1c2ccccc2COc2ccccc21 [DOXEPIN]
Not Active: IC50 (Cytochrome P450 2C9) | Ki (Cytochrome P450 2C9) | IC50 (Cytochrome P450 2D6) | Ki (Cytochrome P450 2D6) | IC50 (Cytochrome P450 3A4) | Ki (Cytochrome P450 3A4) | IC50 (Glucocorticoid receptor)

O=C(c1ccccc1)c1ccc2n1CCC2C(=O)O (centres undefined) [KETOROLAC]
Not Active: IC50 [1] | IC50 [2] | IC50 (D(1A) dopamine receptor) | IC50 (Cytochrome P450 2C9) | Ki (Cytochrome P450 2C9) | IC50 (Cytochrome P450 2D6) | Ki (Cytochrome P450 2D6) | IC50 (Cytochrome P450 3A4) | Ki (Cytochrome P450 3A4)

CC#C[C@]1(O)CC[C@H]2[C@@H]3CCC4=CC(=O)CCC4=C3[C@@H](c3ccc(N(C)C)cc3)C[C@@]21C [MIFEPRISTONE]
Not Active: IC50 [1] | IC50 [2] | IC50 (D(1A) dopamine receptor) | IC50 (Cytochrome P450 2C9) | Ki (Cytochrome P450 2C9) | IC50 (Cytochrome P450 2D6) | Ki (Cytochrome P450 2D6)

CO[C@@]12[C@H](COC(N)=O)C3=C(C(=O)C(C)=C(N)C3=O)N1C[C@@H]1N[C@@H]12 [MITOMYCIN]
Not Active: IC50 [1] | IC50 [2] | IC50 (D(1A) dopamine receptor) | IC50 (Cytochrome P450 2C9) | Ki (Cytochrome P450 2C9) | IC50 (Cytochrome P450 2D6) | Ki (Cytochrome P450 2D6) | IC50 (Cytochrome P450 3A4) | Ki (Cytochrome P450 3A4) | IC50 (Glucocorticoid receptor)

CCN(CC)N=O [N-NITROSODIETHYLAMINE]
Not Active: IC50 [1] | IC50 [2] | IC50 (D(1A) dopamine receptor) | IC50 (Cytochrome P450 2C9) | Ki (Cytochrome P450 2C9) | IC50 (Cytochrome P450 2D6) | Ki (Cytochrome P450 2D6) | IC50 (Cytochrome P450 3A4) | Ki (Cytochrome P450 3A4)

O=C1CC[C@@]2(O)[C@H]3Cc4ccc(O)c5c4[C@@]2(CCN3CC2CC2)[C@H]1O5 [NALTREXONE]
Not Active: IC50 [1] | IC50 [2] | IC50 (D(1A) dopamine receptor) | IC50 (Cytochrome P450 2C9) | Ki (Cytochrome P450 2C9) | IC50 (Cytochrome P450 3A4) | Ki (Cytochrome P450 3A4) | IC50 (Glucocorticoid receptor)

CS(=O)(=O)c1ccc(C2=C(c3ccccc3)C(=O)OC2)cc1 [ROFECOXIB]
Not Active: IC50 [1] | IC50 [2] | IC50 (D(1A) dopamine receptor) | IC50 (Cytochrome P450 2C9) | Ki (Cytochrome P450 2C9) | IC50 (Cytochrome P450 2D6) | Ki (Cytochrome P450 2D6) | IC50 (Cytochrome P450 3A4) | Ki (Cytochrome P450 3A4) | IC50 (Glucocorticoid receptor)

C=CCc1ccc2c(c1)OCO2 [SAFROLE]
Not Active: IC50 [1] | IC50 [2] | IC50 (D(1A) dopamine receptor) | IC50 (Cytochrome P450 2C9) | Ki (Cytochrome P450 2C9) | IC50 (Cytochrome P450 2D6) | Ki (Cytochrome P450 2D6) | IC50 (Cytochrome P450 3A4) | Ki (Cytochrome P450 3A4) | IC50 (Glucocorticoid receptor)

C1CCN2C[C@@H]3C[C@@H](CN4CCCC[C@@H]34)[C@H]2C1 [SPARTEINE]
Not Active: IC50 [1] | IC50 [2] | IC50 (D(1A) dopamine receptor) | IC50 (Glucocorticoid receptor)

C[C@]12CCC(=O)C[C@@H]1CC[C@@H]1[C@@H]2CC[C@]2(C)[C@@H](O)CC[C@@H]12 [STANOLONE]
Not Active: IC50 [1] | IC50 [2] | IC50 (D(1A) dopamine receptor) | IC50 (Cytochrome P450 2C9) | Ki (Cytochrome P450 2C9) | IC50 (Cytochrome P450 2D6) | Ki (Cytochrome P450 2D6) | IC50 (Cytochrome P450 3A4) | Ki (Cytochrome P450 3A4) | IC50 (Glucocorticoid receptor)

Cc1cn([C@H]2C=C[C@@H](CO)O2)c(=O)[nH]c1=O [STAVUDINE]
Not Active: IC50 [1] | IC50 [2] | IC50 (D(1A) dopamine receptor) | IC50 (Cytochrome P450 2C9) | Ki (Cytochrome P450 2C9) | IC50 (Cytochrome P450 2D6) | Ki (Cytochrome P450 2D6) | IC50 (Cytochrome P450 3A4) | Ki (Cytochrome P450 3A4)

O=C(O)c1cc(/N=N/c2ccc(S(=O)(=O)Nc3ccccn3)cc2)ccc1O [SULFASALAZINE]
Not Active: IC50 [1] | IC50 [2] | IC50 (D(1A) dopamine receptor) | IC50 (Cytochrome P450 2C9) | Ki (Cytochrome P450 2C9) | IC50 (Cytochrome P450 2D6) | Ki (Cytochrome P450 2D6) | IC50 (Cytochrome P450 3A4) | Ki (Cytochrome P450 3A4) | IC50 (Glucocorticoid receptor)

CCN1CCCC1CNC(=O)c1cc(S(N)(=O)=O)ccc1OC (centres undefined) [SULPIRIDE]
Not Active: IC50 [1] | IC50 [2] | IC50 (D(1A) dopamine receptor) | IC50 (Cytochrome P450 2C9) | Ki (Cytochrome P450 2C9) | IC50 (Cytochrome P450 2D6) | Ki (Cytochrome P450 2D6) | IC50 (Cytochrome P450 3A4) | Ki (Cytochrome P450 3A4) | IC50 (Glucocorticoid receptor)

O=C(OC[C@H]1O[C@@H](OC(=O)c2cc(O)c(O)c(OC(=O)c3cc(O)c(O)c(O)c3)c2)[C@H](OC(=O)c2cc(O)c(O)c(OC(=O)c3cc(O)c(O)c(O)c3)c2)[C@@H](OC(=O)c2cc(O)c(O)c(OC(=O)c3cc(O)c(O)c(O)c3)c2)[C@@H]1OC(=O)c1cc(O)c(O)c(OC(=O)c2cc(O)c(O)c(O)c2)c1)c1cc(O)c(O)c(OC(=O)c2cc(O)c(O)c(O)c2)c1 [TANNIC ACID]
Not Active: IC50 [1] | IC50 [2] | IC50 (D(1A) dopamine receptor) | IC50 (Cytochrome P450 2D6) | Ki (Cytochrome P450 2D6) | IC50 (Cytochrome P450 3A4) | Ki (Cytochrome P450 3A4) | IC50 (Glucocorticoid receptor)

C#C[C@]1(O)CC[C@H]2[C@@H]3[C@H](C)CC4=C(CCC(=O)C4)[C@H]3CC[C@@]21C [TIBOLONE]
Not Active: IC50 [1] | IC50 [2] | IC50 (D(1A) dopamine receptor) | IC50 (Cytochrome P450 2C9) | Ki (Cytochrome P450 2C9) | IC50 (Cytochrome P450 2D6) | Ki (Cytochrome P450 2D6) | IC50 (Cytochrome P450 3A4) | Ki (Cytochrome P450 3A4)

CC(Cl)(Cl)Cl [TRICHLOROETHANE]
Not Active: IC50 [1] | IC50 [2] | IC50 (D(1A) dopamine receptor) | IC50 (Cytochrome P450 2C9) | Ki (Cytochrome P450 2C9) | IC50 (Cytochrome P450 2D6) | Ki (Cytochrome P450 2D6) | IC50 (Cytochrome P450 3A4) | Ki (Cytochrome P450 3A4)
